Measurements published in US20250257060A1, “OXADIAZOLE COMPOUND, PHARMACEUTICAL COMPOSITION COMPRISING SAME, AND USE THEREOF” (SUZHOU GENHOUSE BIO CO., LTD., priority 2022, published 2025).
Where two headings read alike, the source gives them in different places. Blank lines part the entries; values can stand above or below the compound they belong to.

Experiments:
HDAC6 = HDAC6 (Homo sapiens (Human), UniProt Q9UBN7); test: HDAC6 enzymatic activity assay; type: biochemical
Method: The inhibitory activity of the compounds of the present application against HDAC6 was evaluated by an enzymatic activity assay. HDAC6 (Abcam), test compounds, and a 20 µM substrate solution (Ac-GAK(Ac)-AMC) were each added to a 384-well plate, and the plate was incubated at 37° C. for 30 min. […] and […] were added, and the plate was incubated at room temperature for 15 min. […] IC50 was obtained by fitting using GraphPadPrism 7.0 software.

[1] = Pharmacokinetic test in mice (IV and PO); type: in vivo, BALB/c mice; conditions: for Cmax / AUC(0-inf) / AUC(0-t) / MRT inf / Vd / Tmax: BALB/c, mouse, plasma; for MRT inf: read-out: MRT(0-∞); for Vd: read-out: Vz
Method: In this example, the pharmacokinetic behavior of the compounds after intravenous injection (IV) and intragastric (PO) administration in BALB/c mice was tested.
On the day of administration, mice were weighed for actual body weight and the administration volume was calculated. Each compound was tested in two groups with 3 mice in each group, one group administered by single intravenous injection and the other group of mice by single intragastric administration. Whole blood samples were collected via the orbit at prescribed time points (0.25 h, 0.5 h, 1 h, 2 h, 4 h, 8 h, and 24 h after administration). After blood sample collection, the samples were immediately transferred to labeled commercial sample tubes containing K2-EDTA (0.85-1.15 mg), followed by centrifugation (3200×g, 4° C., 10 min) and plasma collection. The plasma was transferred to a pre-cooled centrifuge tube, frozen in dry ice, and stored in an ultra-low temperature freezer at −60° C. or lower until the LC-MS/MS analysis.
Plasma concentrations were determined by a LC-MS/MS method. Plasma drug concentration data for compounds 1 and 2 were processed in a non-compartmental model using WinNonlin Version 6.3 (Pharsight, Mountain View, CA) pharmacokinetic software. The relevant pharmacokinetic parameters were calculated by a linear logarithmic trapezoid method.

[2] = Brain-to-blood drug concentration ratio of mice; type: in vivo; conditions: mouse, 5 mg/kg PO
Method: On the day of administration, mice were weighed for actual body weight and the administration volume was calculated. In each group of 9 mice, the compound was administered by single intravenous (IV) injection or intragastric (PO) administration. Whole blood samples were collected via the orbit at prescribed time points. After blood sample collection, the samples were immediately transferred to labeled commercial sample tubes containing K2-EDTA (0.85-1.15 mg), followed by centrifugation (3200×g, 4° C., 10 min) and plasma collection. The plasma was transferred to a pre-cooled centrifuge tube, frozen in dry ice, and stored in an ultra-low temperature freezer at −60° C. or lower until the LC-MS/MS analysis. 20 μL of a plasma sample or brain tissue homogenate was taken and 80 μL of an internal standard solution (50 ng/mL solution of propafenone in acetonitrile) was added. The plate was sealed with a film sealer at 165° C., shaken on a micro oscillator (maximum vibration speed) for 10 min, and centrifuged at 4000 rpm for 20 min using a low-speed benchtop centrifuge, 10 μL of supernatant was transferred and 90 μL of acetonitrile was added. The mixture was vortexed and mixed well, and then the plate was sealed with the film sealer at 165° C. After the mixture was vortexed and mixed well, 1 μL of supernatant was taken for LC-MS/MS analysis. Plasma drug concentration data for the compounds were processed in a non-compartmental model using WinNonlin Version 6.3 (Pharsight, Mountain View, CA) pharmacokinetic software. The relevant pharmacokinetic parameters were calculated by a linear logarithmic trapezoid method.
Data processing: brain-to-blood drug concentration ratio of mice at the same time point=drug concentration in brain tissue/drug concentration in plasma

[3] = brain, read-out: Brain drug concentration
[4] = plasma, read-out: Blood drug concentration

Sequence of HDAC6 (Q9UBN7 whole entry): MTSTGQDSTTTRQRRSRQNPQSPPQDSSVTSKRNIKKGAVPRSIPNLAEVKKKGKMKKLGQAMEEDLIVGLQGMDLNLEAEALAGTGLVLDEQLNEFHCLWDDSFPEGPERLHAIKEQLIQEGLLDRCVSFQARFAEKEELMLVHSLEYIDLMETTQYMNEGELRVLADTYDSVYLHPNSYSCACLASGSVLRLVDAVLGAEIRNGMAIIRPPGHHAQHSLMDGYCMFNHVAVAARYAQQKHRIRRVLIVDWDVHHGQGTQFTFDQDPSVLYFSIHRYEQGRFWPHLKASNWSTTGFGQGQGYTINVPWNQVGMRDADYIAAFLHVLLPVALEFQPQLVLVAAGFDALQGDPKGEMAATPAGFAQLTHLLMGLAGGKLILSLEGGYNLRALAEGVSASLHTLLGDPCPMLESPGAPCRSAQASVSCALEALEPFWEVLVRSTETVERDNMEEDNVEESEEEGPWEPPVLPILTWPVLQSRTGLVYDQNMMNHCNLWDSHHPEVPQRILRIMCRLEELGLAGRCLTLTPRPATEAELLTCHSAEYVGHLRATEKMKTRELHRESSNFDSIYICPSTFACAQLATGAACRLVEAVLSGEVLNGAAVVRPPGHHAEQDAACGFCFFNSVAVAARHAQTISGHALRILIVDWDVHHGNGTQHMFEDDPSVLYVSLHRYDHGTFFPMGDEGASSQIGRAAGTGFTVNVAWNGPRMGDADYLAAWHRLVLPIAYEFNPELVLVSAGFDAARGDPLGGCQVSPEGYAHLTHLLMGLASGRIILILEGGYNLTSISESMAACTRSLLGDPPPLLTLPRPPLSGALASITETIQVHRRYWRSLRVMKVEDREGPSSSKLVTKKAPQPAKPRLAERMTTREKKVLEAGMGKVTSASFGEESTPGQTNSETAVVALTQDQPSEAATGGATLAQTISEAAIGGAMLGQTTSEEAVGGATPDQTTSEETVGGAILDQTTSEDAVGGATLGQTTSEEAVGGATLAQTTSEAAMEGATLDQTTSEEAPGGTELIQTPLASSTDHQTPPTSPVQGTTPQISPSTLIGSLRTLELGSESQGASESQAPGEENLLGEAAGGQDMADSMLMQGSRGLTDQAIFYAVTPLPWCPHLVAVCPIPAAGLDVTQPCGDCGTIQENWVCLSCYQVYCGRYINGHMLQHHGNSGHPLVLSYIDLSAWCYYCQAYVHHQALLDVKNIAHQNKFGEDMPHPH

IC50 (HDAC6): 118 nM
Compound: Cn1cc([C@H]([C@@H](O)c2ccccc2)N2Cc3ccc(-c4nnc(C(F)F)o4)cc3S2(=O)=O)cn1 (single isomer, unassigned) [Compound 79i-A]

IC50 (HDAC6): 75.9 nM
Compound: Cn1cc([C@H]([C@@H](O)c2ccccc2)N2Cc3ccc(-c4nnc(C(F)F)o4)cc3S2(=O)=O)cn1 (single isomer, unassigned) [Compound 79i-B]

IC50 (HDAC6): 210 nM
Compound: O=S1(=O)c2cc(-c3nnc(C(F)F)o3)ccc2CN1[C@@H](c1ccccn1)[C@H](O)c1ccc(F)cn1 (single isomer, unassigned) [Compound 84j-A-A]

IC50 (HDAC6): 23.1 nM
Compound: O=S1(=O)c2cc(-c3nnc(C(F)F)o3)ccc2CN1[C@@H](c1ccccn1)[C@H](O)c1ccc(F)cn1 (single isomer, unassigned) [Compound 84j-A-B]

IC50 (HDAC6): 113 nM
Compound: O=S1(=O)c2cc(-c3nnc(C(F)F)o3)ccc2CN1[C@@H](c1ccccn1)[C@H](O)c1ccc(F)cn1 (single isomer, unassigned) [Compound 84j-B]

IC50 (HDAC6): 584 nM
Compound: O=S1(=O)c2cc(-c3nnc(C(F)F)o3)ccc2CN1[C@@H](c1ccc(F)cn1)[C@H](O)c1ccc(F)cn1 (single isomer, unassigned) [Compound 88j-A-A]

IC50 (HDAC6): 132 nM
Compound: O=S1(=O)c2cc(-c3nnc(C(F)F)o3)ccc2CN1[C@@H](c1ccc(F)cn1)[C@H](O)c1ccc(F)cn1 (single isomer, unassigned) [Compound 88j-A]

IC50 (HDAC6): 668 nM
Compound: O=S1(=O)c2cc(-c3nnc(C(F)F)o3)ccc2CN1[C@@H](c1ccc(F)cn1)[C@H](O)c1ccc(F)cn1 (single isomer, unassigned) [Compound 88j-B]

IC50 (HDAC6): 231 nM
Compound: Cn1cc([C@@H](O)[C@H](c2cnn(C)c2)N2Cc3ccc(-c4nnc(C(F)F)o4)cc3S2(=O)=O)cn1 (single isomer, unassigned) [Compound 95j-A]

IC50 (HDAC6): 66.8 nM
Compound: Cn1cc([C@@H](O)[C@H](c2cnn(C)c2)N2Cc3ccc(-c4nnc(C(F)F)o4)cc3S2(=O)=O)cn1 (single isomer, unassigned) [Compound 95j-B-A]

IC50 (HDAC6): 183 nM
Compound: Cn1cc([C@@H](O)[C@H](c2cnn(C)c2)N2Cc3ccc(-c4nnc(C(F)F)o4)cc3S2(=O)=O)cn1 (single isomer, unassigned) [Compound 95j-B-B]

IC50 (HDAC6): 29.9 nM
Compound: Cn1cc([C@@H](O)[C@H](c2cnn(C)c2)N2Cc3ccc(-c4nnc(C(F)F)o4)cc3S2(=O)=O)cn1 (single isomer, unassigned) [Compound 95j-B]

IC50 (HDAC6): 205 nM
Compound: O=S1(=O)c2cc(-c3nnc(C(F)F)o3)ccc2CN1[C@@H](c1cnccn1)[C@H](O)c1cnccn1 (single isomer, unassigned) [Compound 99j-A-A]

IC50 (HDAC6): 73.9 nM
Compound: O=S1(=O)c2cc(-c3nnc(C(F)F)o3)ccc2CN1[C@@H](c1cnccn1)[C@H](O)c1cnccn1 (single isomer, unassigned) [Compound 99j-A-B]

IC50 (HDAC6): 148 nM
Compound: O=S1(=O)c2cc(-c3nnc(C(F)F)o3)ccc2CN1[C@@H](c1cnccn1)[C@H](O)c1cnccn1 (single isomer, unassigned) [Compound 99j-A]

IC50 (HDAC6): 138 nM
Compound: O=S1(=O)c2cc(-c3nnc(C(F)F)o3)ccc2CN1[C@@H](c1cnccn1)[C@H](O)c1cnccn1 (single isomer, unassigned) [Compound 99j-B]

IC50 (HDAC6): 46.1 nM
Compound: O=C(N[C@@H]1CCCC[C@H]1N1Cc2ccc(-c3nnc(C(F)F)o3)cc2S1(=O)=O)C(F)(F)C(F)(F)F [Compound 3]

IC50 (HDAC6): 395 nM
Compound: O=C(N[C@@H]1CCCC[C@H]1N1C(=O)c2ccc(-c3nnc(C(F)F)o3)cc2S1(=O)=O)C(F)F [Compound 6]

IC50 (HDAC6): 224 nM
Compound: CC(C)(C)OC(=O)N[C@@H]1CCCC[C@H]1N1Cc2ccc(-c3nnc(C(F)F)o3)cc2S1(=O)=O [Compound 20]

IC50 (HDAC6): 742 nM
Compound: O=S1(=O)c2cc(-c3nnc(C(F)F)o3)ccc2CN1[C@@H]1CCCC[C@H]1O [Compound 21]

IC50 (HDAC6): 194 nM
Compound: CS(=O)(=O)N[C@@H]1CCCC[C@H]1N1Cc2ccc(-c3nnc(C(F)F)o3)cc2S1(=O)=O [Compound 24]

IC50 (HDAC6): 261 nM
Compound: CC(F)(F)C(=O)N[C@@H]1CCCC[C@H]1N1Cc2c(F)cc(-c3nnc(C(F)F)o3)cc2S1(=O)=O [Compound 39]

IC50 (HDAC6): 252 nM
Compound: O=C(N[C@@H]1CCCC[C@H]1N1Cc2c(F)cc(-c3nnc(C(F)F)o3)cc2S1(=O)=O)C(F)F [Compound 40]

IC50 (HDAC6): 820 nM
Compound: O=S1(=O)c2cc(-c3nnc(C(F)F)o3)ccc2CN1[C@@H]1COCC[C@H]1O [Compound 49]

IC50 (HDAC6): 48.4 nM
Compound: O=C(N[C@@H]1CCCC[C@H]1N1Cc2ccc(-c3nnc(C(F)F)o3)cc2S1(=O)=O)C(F)(F)F [Compound 55]

IC50 (HDAC6): 490 nM
Compound: O=S1(=O)c2cc(-c3nnc(C(F)F)o3)ccc2CN1Cc1cccc(Cl)c1 [Compound 60]

IC50 (HDAC6): 137 nM
Compound: O=S1(=O)c2cc(-c3nnc(C(F)F)o3)ccc2CN1C(c1ccccn1)[C@H](O)c1ccccn1 (stereo partly drawn) [Compound 70i-A]

IC50 (HDAC6): 399 nM
Compound: Cn1cc(-c2ccccc2N2Cc3ccc(-c4nnc(C(F)F)o4)cc3S2(=O)=O)cn1 [Compound 72]

Cmax ([1]; po, 5 mg/kg, read-out: C0/Cmax): 7.17 µM
AUC(0-inf) ([1]; mice, IV 1 mg/kg): 5.28 µM·h
AUC(0-t) ([1]; mice, IV 1 mg/kg): 5.05 µM·h
Cmax ([1]; mice, IV 1 mg/kg (C0)): 1.91 µM
MRT inf ([1]; mice, IV 1 mg/kg): 2.6 h
Vd ([1]; mice, IV 1 mg/kg): 1 L/kg
AUC(0-inf) ([1]; mice, PO 5 mg/kg): 34 µM·h
AUC(0-t) ([1]; mice, PO 5 mg/kg): 25.5 µM·h
Tmax ([1]; mice, PO 5 mg/kg): 1 h
MRT inf ([1]; mice, PO 5 mg/kg): 5.6 h
CLz ([1]; mice, IV 1 mg/kg): 6.7 mL/min/kg
t½z ([1]; mice, IV 1 mg/kg): 1.8 h
F ([1]; mice, PO 5 mg/kg): 101.2%
t½z ([1]; mice, PO 5 mg/kg): 4.2 h
concentration at 2 h [2, 3]: 160 ng/mL
concentration at 8 h ([2]; brain, 8 h, read-out: Brain drug concentration): 72 ng/mL
Kp at 2 h ([2]; brain/plasma): 0.08
Kp at 8 h ([2]; brain/plasma, 8 h): 0.1
concentration at 2 h [2, 4]: 1910 ng/mL
concentration at 8 h ([2]; plasma, 8 h, read-out: Blood drug concentration): 695 ng/mL
Compound: Cn1cc([C@@H]([C@H](O)c2ccccc2)N2Cc3ccc(-c4nnc(C(F)F)o4)cc3S2(=O)=O)cn1 [Compound 80]

Cmax ([1]; po, 5 mg/kg, read-out: C0/Cmax): 5.75 µM
AUC(0-inf) ([1]; mice, IV 1 mg/kg): 1.77 µM·h
AUC(0-t) ([1]; mice, IV 1 mg/kg): 1.62 µM·h
Cmax ([1]; mice, IV 1 mg/kg (C0)): 1.89 µM
MRT inf ([1]; mice, IV 1 mg/kg): 0.8 h
Vd ([1]; mice, IV 1 mg/kg): 0.9 L/kg
AUC(0-inf) ([1]; mice, PO 5 mg/kg): 15.5 µM·h
AUC(0-t) ([1]; mice, PO 5 mg/kg): 15.1 µM·h
Tmax ([1]; mice, PO 5 mg/kg): 1 h
MRT inf ([1]; mice, PO 5 mg/kg): 2.3 h
CLz ([1]; mice, IV 1 mg/kg): 18.3 mL/min/kg
t½z ([1]; mice, IV 1 mg/kg): 0.6 h
F ([1]; mice, PO 5 mg/kg): 175.8%
t½z ([1]; mice, PO 5 mg/kg): 1.5 h
concentration at 2 h [2, 3]: 298 ng/mL
Kp at 2 h ([2]; brain/plasma): 0.28
concentration at 2 h [2, 4]: 1060 ng/mL
Compound: O=S1(=O)c2cc(-c3nnc(C(F)F)o3)ccc2CN1[C@H](c1ccccn1)[C@H](O)c1ccc(F)cn1 [Compound 87]

IC50 (HDAC6): 164 nM
Compound: COC(=O)N[C@@H]1CCCC[C@H]1N1Cc2ccc(-c3nnc(C(F)F)o3)cc2S1(=O)=O [Compound 92]

IC50 (HDAC6): 203 nM
Compound: CNC(=O)N[C@@H]1CCCC[C@H]1N1Cc2ccc(-c3nnc(C(F)F)o3)cc2S1(=O)=O [Compound 94]

IC50 (HDAC6): 285 nM
Compound: O=S1(=O)c2cc(-c3nnc(C(F)F)o3)ccc2CN1[C@@H](c1ncccn1)[C@H](O)c1ncccn1 [Compound 103j-A]

IC50 (HDAC6): 108 nM
Compound: O=S1(=O)c2cc(-c3nnc(C(F)F)o3)ccc2CN1[C@H](c1ncccn1)[C@@H](O)c1ncccn1 [Compound 103j-B]

IC50 (HDAC6): 226 nM
Compound: O=S1(=O)c2cc(-c3nnc(C(F)F)o3)ccc2CN1[C@@H](c1ncccn1)[C@@H](O)c1ncccn1 [Compound 103j-C]

IC50 (HDAC6): 231 nM
Compound: O=S1(=O)c2cc(-c3nnc(C(F)F)o3)ccc2CN1[C@H](c1ncccn1)[C@H](O)c1ncccn1 [Compound 103j-D]

IC50 (HDAC6): 89.8 nM
Compound: O=C(NC1CC1)N[C@@H]1CCCC[C@H]1N1Cc2ccc(-c3nnc(C(F)F)o3)cc2S1(=O)=O [Compound 109]
